Here are results for one compound from patent publication US20240189279A1, “IMMUNOMODULATORY COMPOSITIONS AND METHODS OF USE THEREOF” (THE TEXAS A&M UNIVERSITY SYSTEM, priority 2022, published 2024).

Common to all, as to format: in vivo, mice (male B6 129SF1/J)
Assay [1] deals with Western diet (WD) fed mice. As to the kind of experiment: Western diet mouse model of diet-induced fatty liver disease: serum ALT, liver TG, histology, body weight. The procedure: Study design. The overall objective of the study was to investigate if […] can alleviate diet induced liver steatosis and inflammation in vivo. These NAFLD features were induced in mice by feeding the animals a WD and SW for 8 weeks. The drinking water for these mice was then supplemented with low and high doses of […], while continuing the WD for another 8 weeks. The phenotypic changes were assessed by measuring body weight gain, serum ALT, hepatic inflammatory cytokines, and histopathological examination of liver tissue. To investigate potential mechanisms of action, a series of omics analyses were performed on fecal material (metagenomics and metabolomics) and liver tissue (metabolomics and proteomics). To determine cell-type specific signaling mediating […] effects in macrophages, an in vitro cell culture model was used. The histopathological scoring of liver sections was blinded; all other analyses were not blinded. Sample processing and statistical analysis were performed concurrently on treatment and control groups using identical methods. Animal experiments. Male B6 129SF1/J mice at 6 weeks of age were obtained from Jackson Laboratories (Bar Harbor, ME). Mice were acclimatized to the animal facility for one week. At the start of the experiment, mice were randomly divided into four groups (n=10 for each group). Three of the four groups were fed ad libitum a Western diet (WD) with 40% Kcal from fat and containing 0.15% cholesterol (D12079B, Research Diets) and a sugar water (SW) solution (23.1 g/L d-fructose+18.9 g/L d-glucose) as previously described (DIAMOND model (15)). After 8 weeks, the three groups of WD-fed mice were randomly selected for treatment with vehicle (WD group) or low (WD-50 group) or high dose (WD-100 group) of […]. The WD group was fed WD and drank sugar water. The WD-50 and WD-100 groups were fed WD and drank sugar water containing, respectively, 50 or 100 mg […] per kg body weight. The treatments were continued for another 8 weeks. Water bottles containing SW and […] or only SW were changed every other day. A fourth group of mice was fed a low-fat control diet (D12450B, Research Diets) and normal water for 16 weeks (CN group) (FIG. 9A). FIG. 9A presents the study design. Mice belonging to the same treatment group were housed together (5 mice/cage). Mice were maintained on 12:12-h light-dark cycles. All procedures were performed in accordance with Texas A&M University Health Sciences Center Institutional Animal Care and Use Committee guidelines under an approved animal use protocol (AUP #2017-0145). Sample collection. Fecal pellets were collected every other week prior to […] treatment, right before […] treatment, every week during […] treatment, and on the last day of the experiments (FIG. 9B). FIG. 9B presents the sampling scheme. All fecal pellets were flash frozen in liquid nitrogen after collection. Blood samples from the submandibular vein were taken right prior to […] treatment, every other week during […] treatment and on the last day of the experiments. The blood samples were centrifuged at 4,000 g for 15 min at 4° C. to obtain serum. At the end of the experiment, the mice were sacrificed by euthanasia. The liver was quickly excised and rinsed with 10× volume of ice-cold PBS. The right medium lobe of the liver was fixed in 10% neutral formalin for histological analysis. A small piece from right lateral lobe was stored in RNAlater (Sigma Aldrich, St. Louis, MO) using the manufacturer's protocol. The remaining liver tissue samples were flash frozen in liquid nitrogen, homogenized in HPLC-grade water, lyophilized to a dry powder, and stored at -80° C. until further processing. Histological analysis. Formalin fixed liver were embedded in paraffin, sectioned (5 μm) and stained with hematoxylin and eosin (H&E) through VWR histological services (Radnor, PA). Liver histology sections were evaluated by an expert pathologist at Texas A&M University who was blinded to the treatment conditions. […]

The subject of another assay is liver bile acids. As to the kind of experiment: Liver bile acid analysis (targeted LC-MS) in WD mice. From the text:
Animal experiments. Male B6 129SF1/J mice at 6 weeks of age were obtained from Jackson Laboratories (Bar Harbor, ME). Mice were acclimatized to the animal facility for one week. At the start of the experiment, mice were randomly divided into four groups (n=10 for each group). Three of the four groups were fed ad libitum a Western diet (WD) with 40% Kcal from fat and containing 0.15% cholesterol (D12079B, Research Diets) and a sugar water (SW) solution (23.1 g/L d-fructose+18.9 g/L d-glucose) as previously described (DIAMOND model (15)). After 8 weeks, the three groups of WD-fed mice were randomly selected for treatment with vehicle (WD group) or low (WD-50 group) or high dose (WD-100 group) of […]. The WD group was fed WD and drank sugar water. The WD-50 and WD-100 groups were fed WD and drank sugar water containing, respectively, 50 or 100 mg […] per kg body weight. The treatments were continued for another 8 weeks. Water bottles containing SW and […] or only SW were changed every other day. A fourth group of mice was fed a low-fat control diet (D12450B, Research Diets) and normal water for 16 weeks (CN group) (FIG. 9A). FIG. 9A presents the study design. […] The supernatant was transferred into a new sample tube and analyzed by LC-MS. […] The calculated bile acid concentrations were normalized to the level of spiked internal standard for each sample.

The subject of another assay is liver metabolome. As to the kind of experiment: Liver untargeted metabolomics in WD mice.
[2] abbreviates: week 16, dose-dependent, WD-50 and WD-100 vs WD.

As for `O=C([O-])Cc1c[nH]c2ccccc12.[Na+]` [I3A, Indole-3-acetate sodium salt], the “protection against steatosis and immune cell infiltration in livers” value in assay [1] (I3A up to 100 mg/kg body wt. in drinking water, 16 weeks WD, B6/129 mice) is “dose-dependently protected against these injuries”. In addition, the “serum alanine aminotransferase (ALT) levels” value in assay [1] (high dose I3A (WD-100, 100 mg/kg in drinking water) vs WD, week 10 and beyond) was “significantly reduced serum ALT levels”. Moreover, the body weight increase entry in assay [1] (normalized to week 8 body weight, I3A treated vs WD) is reported as “slowed the weight increase”. Besides, the “liver TG” value in assay [1] (week 16, WD-50 and WD-100 vs WD) is “reduced liver TG in a dose-dependent manner”. In assay [1] (setting [2]), the “hepatocyte ballooning (H&E histology score)” value is listed as “improved”, the “liver steatosis (H&E histology score)” value is given as “improved” and the “lobular inflammation (H&E histology score)” value is “improved”. Moreover, the “liver bile acid profile” value in the assay with liver bile acids (WD-50 group vs WD) is on record as “did not show any significant changes in liver bile acid profile”. Besides, in the assay with liver bile acids (WD-100 group vs WD (WD: reduced total, increased primary bile acids)), the “liver total bile acids and primary bile acids” value is given as “showed the opposite trend”. For the same compound, the “liver metabolome PLS-DA projection” value in the assay on liver metabolome (high dose (WD-100) group vs CN and WD, p<0.005 and p<0.0005) is “only partially overlapped with both CN and the WD group”. For the same compound, the “WD-induced changes in 516 significant annotated liver metabolite features (hierarchical clustering)” value with liver metabolome (high dose of I3A) is recorded as “generally reversed these changes”. Besides, the “liver metabolome PLS-DA projection” value in the assay on liver metabolome (low dose (WD-50) group vs WD, p=0.26) is “overlapped completely with the WD group”.
